{
  "source": "paper PMC10635324",
  "about": "“A Multi-Site Phase I Trial of Veliparib with Standard Radiation and Temozolomide in Patients with Newly Diagnosed Glioblastoma Multiforme (GBM)” (Research Square, 2023)",
  "key": {"[1]": {"set-up": "method as in PMID 17473206", "settings": "rodent model; cited from earlier work"}, "[2]": {"set-up": "method as in PMID 19364967", "settings": "phase 0 clinical trial, oral; cited from earlier work"}, "brain metastasis": {"system": "brain metastasis", "set-up": "method as in PMID 25682091", "settings": "Veliparib 40 mg BID or 200 mg BID added to whole brain radiotherapy; cited from earlier work"}, "[3]": {"set-up": "method as in PMID 28243955, PMID 28497258, PMID 30456480, PMID 27503200, PMID 21795476", "settings": "cited from earlier work"}, "[4]": {"test": "Plasma pharmacokinetics of veliparib, LC-MS/MS, noncompartmental analysis", "type": "in vivo, patients", "settings": "for Cmax: human, plasma, oral, 10 mg, read-out: Cmax, maximum drug concentration in plasma", "procedure": "Patients received a single dose of veliparib one day prior to starting combination therapy with TMZ or RT/TMZ for PK testing after the first single dose as described below. Patients without disease progression, as evaluated by MRI 10-weeks after the initiation of veliparib therapy, received up to four maintenance cycles of the same dose of veliparib in the initial safety cohort or six cycles in phase I veliparib/RT/TMZ cohort. Veliparib was to be given BID for 7 days and TMZ 150–200 mg/m^2 QD for 5 days, repeated every 28 days, with an imaging evaluation after completing every second maintenance cycle.\nPlasma samples were collected to define plasma concentration-time profiles. Samples were collected shortly before dosing and at 0.25, 0.5, 1, 2, 3, 4, 6, 8, and 24 hours after the first dose of six weeks of TMZ and again after achieving steady-state conditions on any day of week 3 of the six weeks (omitting the 24 hour specimen). Samples were analyzed by liquid chromatography-mass spectrometry (LC-MS)/mass spectrometry (MS), Agilent 410B Triple Quadrupole LC/MS system (Agilent Technologies, Inc., Santa Clara, CA).\nThe plasma concentration-time data for veliparib was analyzed by noncompartmental methods using model 200 for extravascular input in WinNonlin Professional version 5.0.1. Samples with concentrations below the LLQ of the assay were excluded. The maximum concentration of the drug achieved in plasma (Cmax) and the time that it occurred (tmax) were based upon the observed values following a given dose. Area under the plasma concentration-time curves for 8 h (AUC8) and 24 h (AUC24) after dosing were estimated using the log- linear trapezoidal algorithm. Routines provided in the Data Analysis ToolPak of Microsoft Excel 2003 (11.8231.8221) SP3, Professional Edition (Redmond, WA), were used for the descriptive statistics and statistical tests. Arithmetic averages and standard deviations were calculated for the time of the maximum drug concentration in plasma (tmax). Geometric means were calculated for all other pharmacokinetic variables. The jackknife technique was used to estimate the standard deviation of geometric means."}, "[5]": {"system": "patients with newly diagnosed glioblastoma", "test": "Survival from the date of study enrollment", "type": "in vivo", "settings": "all patients on study", "source_text": "All subjects were followed until death, and survival from the date of study enrollment was reported to evaluate for any unexpected adverse results."}, "[6]": {"set-up": "method as in PMID 17473206", "settings": "preclinical, oral; cited from earlier work"}, "[7]": {"system": "patients with newly diagnosed glioblastoma", "test": "Phase I dose-limiting toxicities / adverse events (CTCAE v.3.0)", "type": "in vivo", "procedure": "This was an open-label, multi-center, phase 1 study. The maximum tolerated dose (MTD) was a dose producing a dose-limiting-toxicity (DLT) rate at 33% or less. A modified 3 + 3 design with 6 patients per dose cohort was used due to 10 weeks long safety evaluation period that potentially 40–50% patient might drop-out study for early disease progression.\nThe initial safety group of up to 6 patients included patients who had recently completed standard concurrent RT/TMZ) were then treated with one cycle of low-dose veliparib 10 mg BID along with 6 weeks of once-a day (QD) temozolomide 75 mg/m2/d (no RT). Once this one cycle was complete, patients were permitted to transition to monthly cycles of standard adjuvant temozolomide 150–200 mg/m2/d for five consecutive days each month.\nIf safety was confirmed, then the phase I component including radiotherapy would proceed enrolling cohorts of 6 patients to pre-specified escalating dose levels of daily veliparib, ranging from 10 mg BID to 100 mg twice-daily BID daily along with TMZ (75 mg/m^2/d) for 6 weeks in conjunction with standard radiation 60 Gy in 30 fractions.The protocol specified that if excessive toxicity occurred, de-escalation could be introduced by joint decision of study PI, sponsor, and ABTC leadership to a choice of veliparib 10 mg daily, 10 mg every other day or 10 mg BID 1 week on/1 week off for the 6-week period.\nDLTs were events considered possible or probably related to veliparib alone, veliparibib/TMZ or Veliparib/RT per CTCAE v.3.0 including: ≥ grade 3 nonhematological toxicities not resolving with anticonvulsants or steroid treatment excluding grade 3 nausea and dermatitis. Hematologic toxicity was considered dose limiting if there was 1) ANC ≤ 500/mm^3; 2) Platelets ≤ 25,000/mm^3; 3) Grade 3 toxicity that prevents administration of > 75% of the planned temozolomide doses for the first cycle; 4) interruption of treatment for > 14 days. All subjects were monitored for safety throughout the trial."}, "[8]": {"set-up": "method as in PMID 26202595", "settings": "cited from earlier work"}, "[9]": {"system": "patients with MGMT methylation", "set-up": "method as in doi:10.1200/JCO.2022.40.16_suppl.2001", "settings": "cited from earlier work"}, "[10]": {"settings": "Single dose 10 mg Veliparib, n=16"}, "[11]": {"settings": "Steady-state 10 mg BID Veliparib, week 3, n=18"}},
  "note": "Several values for one entry are separate records, joined by “and”; a condition that tells them apart may be missing. Equal entries are not always repeated. Where two headings read alike, the source gives them in different places.",
  "data": [
    {"smiles": "C[C@]1(c2nc3c(C(N)=O)cccc3[nH]2)CCCN1", "note": "[Veliparib]", "values": [
      {"measurement": "Crossing of the blood brain barrier", "setting": "[1]", "value": "cross the blood brain barrier"},
      {"measurement": "Bioavailability", "setting": "[2]", "value": "good bioavailability"},
      {"measurement": "Adverse events compared with placebo", "setting": "brain metastasis", "value": "no increase in adverse events"},
      {"measurement": "Effect of TMZ co-administration on the clearance of veliparib", "setting": "[3]", "value": "no effect"},
      {"measurement": "Accumulation for BID dosing", "setting": "[4]; BID dosing", "value": 56, "unit": "%"},
      {"measurement": "CL/F, apparent oral clearance", "setting": "[4]; Single (initial) dose 10 mg Veliparib, n=16", "value": "27.0 ± 9.0 L/h and 27.0 ± 9.2 L/h"},
      {"measurement": "t1/2,z apparent terminal phase half-life", "setting": "[4]; [10]", "value": "5.8 ± 0.9", "unit": "h"},
      {"measurement": "Cmin, minimum drug concentration in plasma", "setting": "[4]; Single dose 10 mg Veliparib, n=16, geometric mean ± SD", "value": "2.5 ± 1.3", "unit": "ng/mL"},
      {"measurement": "CL/F, apparent oral clearance", "setting": "[4]; Steady-state 10 mg BID Veliparib, n=18", "value": "23.5 ± 10.4", "unit": "L/h"},
      {"measurement": "Cmin, minimum drug concentration in plasma", "setting": "[4]; [11]", "value": "18.4 ± 10.4", "unit": "ng/mL"},
      {"measurement": "Accumulation", "setting": "[4]; Steady-state 10 mg BID dosing", "value": 56, "unit": "%"},
      {"measurement": "Cmax", "setting": "[4]; [10]", "value": "50.3 ± 19", "unit": "ng/mL"},
      {"measurement": "Cmax", "setting": "[4]; [11]", "value": "66.1 ± 28.7", "unit": "ng/mL"},
      {"measurement": "Peak and trough concentrations throughout six weeks of daily dosing", "setting": "[4]; veliparib 20 mg BID concurrently with daily temozolomide (so in the source)", "value": "remains stable"},
      {"measurement": "Survival at 2 years", "setting": "[5]", "value": 25, "unit": "%"},
      {"measurement": "Median survival", "setting": "[5]; 95%CI: 8–16 months", "value": 13, "unit": "months"},
      {"measurement": "Bioavailability", "setting": "[6]", "value": "good bioavailability"},
      {"measurement": "Patients with platelets <25,000/mm^3", "setting": "[7]; 12 patients, veliparib 10 mg BID + TMZ + RT", "value": 3, "unit": "patients"},
      {"measurement": "Anemia", "setting": "[7]; human, in vivo, 6 weeks", "value": "1 (4.2) n (%)"},
      {"measurement": "Any adverse event (dose limiting, possibly related)", "setting": "[7]; human, in vivo, 6 weeks", "value": "11 (45.8) n (%)"},
      {"measurement": "Febrile neutropenia", "setting": "[7]; human, in vivo, 6 weeks", "value": "1 (4.2) n (%)"},
      {"measurement": "Neutropenia", "setting": "[7]; human, in vivo, 6 weeks", "value": "2 (8.3) n (%)"},
      {"measurement": "Pancytopenia", "setting": "[7]; human, in vivo, 6 weeks", "value": "1 (4.2) n (%)"},
      {"measurement": "Subjects with ≥ 1 AE (Blood and Lymphatic Systemic Disorders)", "setting": "[7]; human, in vivo, 6 weeks", "value": "9 (37.5) n (%)"},
      {"measurement": "Thrombocytopenia", "setting": "[7]; human, in vivo, 6 weeks", "value": "7 (29.2) n (%)"},
      {"measurement": "Number of dose limiting toxicities (DLT)", "setting": "[7]; in vivo", "value": "one"},
      {"measurement": "Tolerable dose (maximum tolerated dose)", "setting": "[7]; with TMZ and six weeks of standard radiation, even with 50% dose reductions", "value": "a tolerable dose of veliparib could not be found"},
      {"measurement": "Effect of veliparib coadministration on TMZ plasma exposures", "setting": "[8]", "value": "does not affect"},
      {"measurement": "Hematologic toxicity (neutropenia, thrombocytopenia, and anemia)", "setting": "[9]; veliparib 40 mg BID each day of standard adjuvant TMZ (days 1–5) after concurrent RT/TMZ", "value": "increased but acceptable hematologic toxicity"},
      {"measurement": "Survival benefit", "setting": "[9]; veliparib 40 mg BID each day of standard adjuvant TMZ (days 1–5)", "value": "without survival benefit"}
    ]}
  ]
}
